Experimental data published in PubChem BioAssay AID503.

Molecular target: Regulator of G-protein signaling 18 (Homo sapiens) (UniProt Q9NS28)
Assay: RGS18 binders by thermal stabilization, biophysical, recombinant human protein, DSF (AID 503)
Conditions: SYPRO orange, at 10 µM, protein 2 µM, buffer 10 mM HEPES, pH 7.5, NaCl 150 mM, stronger effect = higher value

Sequence of Regulator of G-protein signaling 18 (Homo sapiens) (Q9NS28 whole entry, looked up): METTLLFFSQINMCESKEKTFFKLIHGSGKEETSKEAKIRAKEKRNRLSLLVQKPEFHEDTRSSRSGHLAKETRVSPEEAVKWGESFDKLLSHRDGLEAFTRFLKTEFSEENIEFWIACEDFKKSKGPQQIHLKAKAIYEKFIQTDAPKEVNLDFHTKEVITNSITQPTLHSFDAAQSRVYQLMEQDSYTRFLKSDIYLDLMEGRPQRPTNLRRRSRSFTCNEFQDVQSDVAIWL

Row | SMILES | Tm shift [°C]
1 | O=C(Nc1cccc(Nc2cc(Nc3cccc(C(F)(F)F)c3)ncn2)c1)C1CC1 | 4
2 | O=C1NCc2c1c1c3ccccc3[nH]c1c1[nH]c3ccccc3c21 | 2.6
